Data published in patent publication US20040219100A1, “Composition useful for the treatment of tumors” (priority 2003, published 2004).

Test system: JJ5 Breast Cancer cells
Experiment: Kinetics of binding and retention of radioactivity by the cells
Type: cell-based, human
Text: Breast cancer cells express up to 100-fold higher levels of EGFR than do normal epithelial tissues. EGFR expression in breast cancer bone metastasis biopsies ranged from 1-1300 fmol/mg membrane protein (approximately 400-1,000,000 receptors/cell) and was associated with high relapse rates and poor long term survival. Normal epithelial cells express <10^4 receptors/cell. For the normal breast cell line HBL-100, 8000 EGFR/cell has been reported. The expression of EGFR in breast cancer cell lines has a reported range of 800 EGFR/cell for MCF-7 cells to 10^6 EGFR/cell for MDA-MB-468 cells. […] Utilizing the Auger electron emitter ^111In was used in the initial experiments to illustrate the utility of the invention using EGF-^111In-labeled transferrin compounds. […] The cell pellet was separated from the supernatant and counted in a g-scintillation counter to determine bound (B) and free (F) radioactivity. Non-specific binding was determined by conducting the assay in 100 nM hEGF. […] Internalized fraction was measured by determining the proportion of radioactivity which could not be displaced from the cell surface by 100 nM hEGF. Cell-associated binding (surface-binding and intracellular accumulation) was expressed as a percentage of medium radioactivity bound per mg of cell study protein.

EGF-^111In-labeled transferrin compound: human epidermal growth factor (EGF) operatively linked (peptide or PEG linker, biotin-streptavidin) to 111In-radiolabeled human transferrin
retained by the breast cancer cells (37° C., JJ5 cells): at least 24 hours
111In radioactivity lost from the cells in vitro (over a 24 hour period at 37° C.): < 8%
